# Data: patent US6444617B1, “Fused-heterocycle dicarboxylic acid diamide derivatives or salts thereof, herbicide and usage thereof” (Nihon Nohyaku Co., Ltd., priority 1998, dated 2002)
# What was measured:
# Type in all cases: in vivo
# [1] = test system: barnyard grass (Echinochloa crus-galli Beauv.); assay: Test Example 1: herbicidal effect on paddy field weeds before emergence; conditions: Dosage 5 kg/ha
# Procedure, shortened: (§1)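 Grading reflects percent control relative to untreated plots, evaluated three weeks post-application. Treatment was a soil application of compound solution, predetermined dose, made to paddy-state pots before weed seeds germinated.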
# [2] = test system: bulrush (Scirpus juncoides Roxb.); assay: as above; conditions: Dosage 5 kg/ha
# Procedure, shortened: as §1
# [3] = test system: barnyard grass (Echinochloa crus-galli Beauv.); assay: Test Example 2: herbicidal effect on paddy field weeds after emergence; conditions: Dosage 5 kg/ha; one-leaved stage; 21 days after treatment
# Procedure, shortened: (§2)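 Weeds were sown in 1/10000 are pots of soil flooded to paddy conditions and grown to the one-leaf stage, then the soil was treated with a solution of compound at a predetermined dosage.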
# [4] = test system: bulrush (Scirpus juncoides Roxb.); assay: as above; conditions: Dosage 5 kg/ha; one-leaved stage; 21 days after treatment
# Procedure, shortened: as §2
# [5] = test system: monochoria (Monochoria vaginalis Presl); assay: as above; conditions: Dosage 5 kg/ha; one-leaved stage; 21 days after treatment
# Procedure, shortened: as §2
# [6] = test system: barnyard grass (Echinochloa crus-galli Beauv.), Ec; assay: Test Example 3: herbicidal effect on upland weeds before emergence; conditions: dosage 5 kg/ha
# Procedure, shortened: (§3)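 Test compound, formulated as a liquid at a fixed concentration, is sprayed before weed emergence. Two weeks later, kill rate is derived and herbicidal activity is rated.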
# [7] = test system: bird's eye speedwell (Veronica persica Poir.), Vp; assay: as above; conditions: dosage 5 kg/ha
# Procedure, shortened: as §3
# [8] = test system: cleavers (Galium aparine L.), Ga; assay: as above; conditions: dosage 5 kg/ha
# Procedure, shortened: as §3
# [9] = test system: cocklebur (Xanthium strumarium L.), Xs; assay: as above; conditions: dosage 5 kg/ha
# Procedure, shortened: as §3
# [10] = test system: forxtail grass (Alopecurus aequalis var. amurensis Ohwi), Am; assay: as above; conditions: foxtail grass, dosage 5 kg/ha
# Procedure, shortened: as §3
# [11] = test system: velvetleaf (Abutilon theophtasti L.), At; assay: as above; conditions: dosage 5 kg/ha
# Procedure, shortened: as §3
# soybean plant (So) = assay: Test Example 3: phytotoxicity to upland crop plants, treatment before emergence; conditions: dosage 5 kg/ha
# Procedure, shortened: (§4)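 Compound formulated as a liquid agent at a prescribed concentration is sprayed before crop emergence. After fourteen days, damage to soybean and wheat is examined and rated by a judgment criterion.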
# wheat (Wh) = assay: as above; conditions: dosage 5 kg/ha
# Procedure, shortened: as §4
# [12] = test system: barnyard grass (Echinochloa crus-galli Beauv.), Ec; assay: Test Example 4: herbicidal effect on upland weeds after emergence; conditions: dosage 5 kg/ha; sprayed after emergence; judged 14 days after treatment
# Procedure, shortened: (§5)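 Scores of weed-killing rate, with crop phytotoxicity, come from inspection 14 days after plants in soil vats, grown to specified leaf stages, are sprayed with a formulation holding the compound at a prescribed concentration.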
# [13] = test system: bird's eye speedwell (Veronica persica Poir.), Vp; assay: as above; conditions: dosage 5 kg/ha; sprayed after emergence; judged 14 days after treatment
# Procedure, shortened: as §5
# [14] = test system: cleavers (Galium aparine L.), Ga; assay: as above; conditions: dosage 5 kg/ha; sprayed after emergence; judged 14 days after treatment
# Procedure, shortened: as §5
# [15] = test system: cocklebur (Xanthium strumarium L.), Xs; assay: as above; conditions: dosage 5 kg/ha; sprayed after emergence; judged 14 days after treatment
# Procedure, shortened: as §5
# [16] = test system: forxtail grass (Alopecurus aequalis var. amurensis Ohwi), Am; assay: as above; conditions: dosage 5 kg/ha; sprayed after emergence; judged 14 days after treatment
# Procedure, shortened: as §5
# [17] = test system: velvetleaf (Abutilon theophtasti L.), At; assay: as above; conditions: dosage 5 kg/ha; sprayed after emergence; judged 14 days after treatment
# Procedure, shortened: as §5
# soybean plant = assay: Test Example 4: phytotoxicity to upland crop plants, treatment after emergence; conditions: dosage 5 kg/ha, sprayed after emergence, judged 14 days after treatment
# Procedure, shortened: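 Upland weeds and crop plants (soybean, wheat) are grown from seed in soil until they reach given leaf stages, then treated by spraying with the compound-containing agent; effects are judged two weeks later.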
# wheat = assay: as above; conditions: dosage 5 kg/ha, sprayed after emergence, judged 14 days after treatment
# Procedure, shortened: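 Seeds sown in soil and covered. Plants raised to specified leaf stages. Agent with test compound at a prescribed concentration sprayed. Herbicidal effect and crop damage scored after 14 days as weed-killing rate.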
smiles,measurement,setting,value
Cc1c(Cl)cccc1NC(=O)c1cc2c(nc1C(=O)NCC(C)C)OCCC2 [compound 431],Pre-emergence treatment Barnyard grass (herbicidal effect),[1],5 (Weed-killing rate is 100%.)
same,Pre-emergence treatment Bulrush (herbicidal effect),[2],5 (Weed-killing rate is 100%.)
same,Post-emergence treatment Barnyard grass (herbicidal effect),[3],5 (Weed-killing rate is 100%.)
same,Post-emergence treatment Bulrush (herbicidal effect),[4],5 (Weed-killing rate is 100%.)
same,Post-emergence treatment Monochoria (herbicidal effect),[5],5 (Weed-killing rate is 100%.)
same,Herbicidal effect Ec,[6],5 (Weed-killing rate is 100%.)
same,Herbicidal effect Vp,[7],5 (Weed-killing rate is 100%.)
same,Herbicidal effect Ga,[8],4 (Weed-killing rate is 90-99%.)
same,Herbicidal effect Xs,[9],4 (Weed-killing rate is 90-99%.)
same,Herbicidal effect Am,[10],4 (Weed-killing rate is 90-99%.)
same,Herbicidal effect At,[11],5 (Weed-killing rate is 100%.)
same,Phytotoxicity So,soybean plant (So),3 (Crop-killing rate is 70-89%.)
same,Phytotoxicity Wh,wheat (Wh),3 (Crop-killing rate is 70-89%.)
same,Herbicidal effect Ec,[12],4 (Weed-killing rate is 90-99%.)
same,Herbicidal effect Vp,[13],5 (Weed-killing rate is 100%.)
same,Herbicidal effect Ga,[14],4 (Weed-killing rate is 90-99%.)
same,Herbicidal effect Xs,[15],4 (Weed-killing rate is 90-99%.)
same,Herbicidal effect Am,[16],4 (Weed-killing rate is 90-99%.)
same,Herbicidal effect At,[17],5 (Weed-killing rate is 100%.)
same,Phytotoxicity So,soybean plant,3 (Crop-killing rate is 70-89%.)
same,Phytotoxicity Wh,wheat,4 (Crop-killing rate is 90-99%.)
CCCNC(=O)c1nc2c(cc1C(=O)Nc1c(CC)ccc(Cl)c1CC)CCOC2 [compound 438],Pre-emergence treatment Barnyard grass (herbicidal effect),[1],5 (Weed-killing rate is 100%.)
same,Pre-emergence treatment Bulrush (herbicidal effect),[2],5 (Weed-killing rate is 100%.)
same,Post-emergence treatment Barnyard grass (herbicidal effect),[3],5 (Weed-killing rate is 100%.)
same,Post-emergence treatment Bulrush (herbicidal effect),[4],5 (Weed-killing rate is 100%.)
same,Post-emergence treatment Monochoria (herbicidal effect),[5],5 (Weed-killing rate is 100%.)
same,Herbicidal effect Ec,[6],5 (Weed-killing rate is 100%.)
same,Herbicidal effect Vp,[7],5 (Weed-killing rate is 100%.)
same,Herbicidal effect Ga,[8],5 (Weed-killing rate is 100%.)
same,Herbicidal effect Xs,[9],5 (Weed-killing rate is 100%.)
same,Herbicidal effect Am,[10],5 (Weed-killing rate is 100%.)
same,Herbicidal effect At,[11],5 (Weed-killing rate is 100%.)
same,Phytotoxicity So,soybean plant (So),5 (Crop-killing rate is 100%.)
same,Phytotoxicity Wh,wheat (Wh),5 (Crop-killing rate is 100%.)
same,Herbicidal effect Ec,[12],5 (Weed-killing rate is 100%.)
same,Herbicidal effect Vp,[13],5 (Weed-killing rate is 100%.)
same,Herbicidal effect Ga,[14],5 (Weed-killing rate is 100%.)
same,Herbicidal effect Xs,[15],5 (Weed-killing rate is 100%.)
same,Herbicidal effect Am,[16],5 (Weed-killing rate is 100%.)
same,Herbicidal effect At,[17],5 (Weed-killing rate is 100%.)
same,Phytotoxicity So,soybean plant,4 (Crop-killing rate is 90-99%.)
same,Phytotoxicity Wh,wheat,5 (Crop-killing rate is 100%.)
CCc1ccc(Cl)c(CC)c1NC(=O)c1cc2c(nc1C(=O)NC1CCCC1)COCC2 [compound 447],Pre-emergence treatment Barnyard grass (herbicidal effect),[1],5 (Weed-killing rate is 100%.)
same,Pre-emergence treatment Bulrush (herbicidal effect),[2],5 (Weed-killing rate is 100%.)
same,Post-emergence treatment Barnyard grass (herbicidal effect),[3],5 (Weed-killing rate is 100%.)
same,Post-emergence treatment Bulrush (herbicidal effect),[4],5 (Weed-killing rate is 100%.)
same,Post-emergence treatment Monochoria (herbicidal effect),[5],5 (Weed-killing rate is 100%.)
same,Herbicidal effect Ec,[6],5 (Weed-killing rate is 100%.)
same,Herbicidal effect Vp,[7],5 (Weed-killing rate is 100%.)
same,Herbicidal effect Ga,[8],5 (Weed-killing rate is 100%.)
same,Herbicidal effect Xs,[9],5 (Weed-killing rate is 100%.)
same,Herbicidal effect Am,[10],5 (Weed-killing rate is 100%.)
same,Herbicidal effect At,[11],5 (Weed-killing rate is 100%.)
same,Phytotoxicity So,soybean plant (So),4 (Crop-killing rate is 90-99%.)
same,Phytotoxicity Wh,wheat (Wh),5 (Crop-killing rate is 100%.)
same,Herbicidal effect Ec,[12],5 (Weed-killing rate is 100%.)
same,Herbicidal effect Vp,[13],5 (Weed-killing rate is 100%.)
same,Herbicidal effect Ga,[14],5 (Weed-killing rate is 100%.)
same,Herbicidal effect Xs,[15],5 (Weed-killing rate is 100%.)
same,Herbicidal effect Am,[16],5 (Weed-killing rate is 100%.)
same,Herbicidal effect At,[17],5 (Weed-killing rate is 100%.)
same,Phytotoxicity So,soybean plant,4 (Crop-killing rate is 90-99%.)
same,Phytotoxicity Wh,wheat,5 (Crop-killing rate is 100%.)
